From patent US11072588B2, “Barbituric acid derivatives comprising cationic and lipophilic groups” (UNIVERSITETET I TROMSØ—NORGES ARKTISKE UNIVERSITET, priority 2017, dated 2021)
Like-named read-outs stand apart in the source and are kept apart here.

Tests used:
A. baumanii K63-58 = assay: MIC, multi-resistant clinical isolate; type: cell-based, Acinetobacter baumannii; details: A. baumanii K63-58, resistant to colistin; for MIC: Acinetobacter baumannii, K6358, 24 h, read-out: Antimicrobial activity (MIC); for selectivity index (EC50/MIC): RBC EC50 / MIC
Procedure: (§1) Working solutions of the test derivatives were prepared with up to 100% DMSO and stored at −20° C. If necessary, the solutions were heated to 40-80° C. before testing to facilitate complete dissolution. Double-distilled water was used in all dilutions prepared. […] A microdilution susceptibility test was used for MIC determination according to Clinical and Laboratory Standards Institute, “Methods for Dilution Antimicrobial Sisceptibility Tests for Bacteria That Graw Aerobically”, Approved Standard M07-A9, edition 2012, with modifications as described by Igumnova et al (Bioorg Med Chem, 2016, 24 (22), 5884-5894).
(§2) Briefly, the bacterial inoculum was adjusted to approximately 2.5-3×10^4 cells/mL in Mueller-Hinton broth (MHB, Difco Laboratories, USA), and incubated in a ratio of 1:1 with test derivatives in polystyrene 96-well flat-bottom microplates (NUNC, Roskilde, Denmark). Positive growth control (without test derivatives) and negative control (without bacteria) were included. The reference antibiotic was oxytetracycline hydrochloride (Sigma Aldrich, Saint Louis, Mo., USA). The microplates were incubated in an EnVision microplate reader (Perkin-Elmer, Turku, Finland) placed in an incubator set to 35° C. for 48 h. The MIC value was defined as the lowest concentration of derivative resulting in no bacterial growth as determined by OD600 measurement. All derivatives were tested in three parallels.
(§3) The MIC was determined as explained above with some exceptions; working solutions of test derivatives were prepared from concentrated DMSO stocks stored at room temperature, the density of the bacterial inoculum was increased 40× to 1-1.2×10^6 cells/mL, enterococci were incubated in Brain Heart Infusion broth (BHIB, Difco Laboratories, USA), the microplates were incubated for 24 h, and the derivatives were tested in four parallels.

A. baumanii K12-21 = assay: MIC, multi-resistant clinical isolate; type: cell-based, Acinetobacter baumannii; details: for MIC: Acinetobacter baumannii, K1221, read-out: Antimicrobial activity (MIC); for selectivity index (EC50/MIC): RBC EC50 / MIC
Procedure: as §1, §2, §3

A. baumanii K44-35 = assay: MIC, multi-resistant clinical isolate; type: cell-based, Acinetobacter baumannii; details: for MIC: Acinetobacter baumannii, K4435, read-out: Antimicrobial activity (MIC); for selectivity index (EC50/MIC): RBC EC50 / MIC
Procedure: as §1, §2, §3

A. baumanii K47-42 = assay: MIC, multi-resistant clinical isolate; type: cell-based, Acinetobacter baumannii; details: for MIC: Acinetobacter baumannii, K4742, read-out: Antimicrobial activity (MIC); for selectivity index (EC50/MIC): RBC EC50 / MIC
Procedure: as §1, §2, §3

A. baumanii K55-13 = assay: MIC, multi-resistant clinical isolate; type: cell-based, Acinetobacter baumannii; details: for MIC: Acinetobacter baumannii, K5513, read-out: Antimicrobial activity (MIC); for selectivity index (EC50/MIC): RBC EC50 / MIC
Procedure: as §1, §2, §3

E. coli 50739822 = assay: MIC, multi-resistant clinical isolate; type: cell-based, Escherichia coli; details: for MIC: Escherichia coli, read-out: Antimicrobial activity (MIC); for selectivity index (EC50/MIC): RBC EC50 / MIC
E. coli 50579417 = assay: MIC, multi-resistant clinical isolate; type: cell-based, Escherichia coli; details: for MIC: Escherichia coli, read-out: Antimicrobial activity (MIC); for selectivity index (EC50/MIC): RBC EC50 / MIC
E. coli 50676002 = assay: MIC, multi-resistant clinical isolate; type: cell-based, Escherichia coli; details: for selectivity index (EC50/MIC): RBC EC50 / MIC
S. aureus IHT 99040 = assay: MIC, multi-resistant clinical isolate; type: cell-based, Staphylococcus aureus; details: for selectivity index (EC50/MIC): RBC EC50 / MIC; for MIC: Staphylococcus aureus, IHT99040, read-out: Antimicrobial activity (MIC)
Procedure: as §1, §2, §3

S. aureus strain 85/2082 = assay: MIC, multi-resistant clinical isolate; type: cell-based, Staphylococcus aureus; details: for selectivity index (EC50/MIC): RBC EC50 / MIC, S. aureus strain 85/2082; for MIC: Staphylococcus aureus, 85/2082, read-out: Antimicrobial activity (MIC)
Procedure: as §1, §2, §3

S. aureus N315 = assay: MIC, multi-resistant clinical isolate; type: cell-based, Staphylococcus aureus; details: for selectivity index (EC50/MIC): RBC EC50 / MIC, S. aureus N315; for MIC: Staphylococcus aureus, N315, read-out: Antimicrobial activity (MIC)
Procedure: as §1, §2, §3

S. aureus strain WIS = assay: MIC, multi-resistant clinical isolate; type: cell-based, Staphylococcus aureus; details: for selectivity index (EC50/MIC): RBC EC50 / MIC, S. aureus strain WIS; for MIC: Staphylococcus aureus, read-out: Antimicrobial activity (MIC)
Procedure: as §1, §2, §3

S. aureus NCTC 10442 = assay: MIC, multi-resistant clinical isolate; type: cell-based, Staphylococcus aureus; details: for selectivity index (EC50/MIC): RBC EC50 / MIC, S. aureus NCTC 10442; for MIC: Staphylococcus aureus, NCTC10442, read-out: Antimicrobial activity (MIC)
Procedure: as §1, §2, §3

[1] = tested on: human metastatic melanoma (A2058, ATCC CRL-11147) cells; assay: Anti-cancer activity against A2058 cells; type: cell-based; details: A2058, read-out: Anti-cancer IC50
Procedure: Cytotoxicity of the test compounds was evaluated after 72 hour exposure to human metastatic melanoma (A2058, ATCC CRL-11147) cells.
A2058 cells were grown overnight (2,000 cells/well), and then incubated with the test compounds (range of concentrations) diluted in MEM Earle's supplemented with gentamycin (10 μg/mL), non-essential amino acids (1%), sodium pyruvate (1 mM), L-alanyl-Lglutamine (2 mM), but without FBS (total volume was 100 μl) for […]. Ten μL of CellTiter 96® AQueous One Solution Reagent (Promega, Madison, Wis., USA) was added, and the plates were then further incubated for 1 hour.
Absorbance was measured at 485 nm in a DTX 880 Multimode Detector. Results were calculated as % survival compared to negative (assay media) and positive (Triton X-100; Sigma-Aldrich) controls.

[2] = Escherichia coli, 50676002, read-out: Antimicrobial activity (MIC)

NCCCCN1C(=O)N(CCCCN)C(=O)C(Cc2ccc(F)c3ccccc23)(Cc2ccc(F)c3ccccc23)C1=O [7(v), 1,3-bis(4-aminobutyl)-5,5-bis((4-fluoronaphtalen-1-yl)methyl)pyrimidin-2,4,6(1H,3H,5H)-trione]
(5): selectivity index (EC50/MIC) (A. baumanii K12-21) | selectivity index (EC50/MIC) (A. baumanii K44-35) | selectivity index (EC50/MIC) (A. baumanii K47-42) | selectivity index (EC50/MIC) (A. baumanii K55-13)
(40): selectivity index (EC50/MIC) (S. aureus strain 85/2082)
(20): selectivity index (EC50/MIC) (S. aureus IHT 99040) | selectivity index (EC50/MIC) (S. aureus N315) | selectivity index (EC50/MIC) (S. aureus strain WIS) | selectivity index (EC50/MIC) (S. aureus NCTC 10442)
32 µg/mL: MIC (A. baumanii K12-21) | MIC (A. baumanii K44-35) | MIC (A. baumanii K47-42) | MIC (A. baumanii K55-13)
8 µg/mL: MIC (S. aureus IHT 99040) | MIC (S. aureus N315) | MIC (S. aureus strain WIS) | MIC (S. aureus NCTC 10442)
(10): selectivity index (EC50/MIC) (A. baumanii K63-58) | selectivity index (EC50/MIC) (E. coli 50739822) | selectivity index (EC50/MIC) (E. coli 50579417) | selectivity index (EC50/MIC) (E. coli 50676002; E. coli 50676002)
1 µg/mL: IC50 [1]
16 µg/mL: MIC (A. baumanii K63-58) | MIC (E. coli 50739822) | MIC (E. coli 50579417) | MIC (E. coli 50676002; [2])
4 µg/mL: MIC (S. aureus strain 85/2082)

NCCCCN1C(=O)N(CCCCN)C(=O)C(Cc2cc(C(F)(F)F)cc(C(F)(F)F)c2)(Cc2cc(C(F)(F)F)cc(C(F)(F)F)c2)C1=O [7(vi)]
32 µg/mL: MIC (A. baumanii K63-58) | MIC (A. baumanii K44-35) | MIC (A. baumanii K47-42) | MIC (A. baumanii K55-13)
16 µg/mL: MIC (A. baumanii K12-21) | MIC (E. coli 50739822) | MIC (E. coli 50579417) | MIC (E. coli 50676002; [2]) | MIC (S. aureus IHT 99040) | MIC (S. aureus strain 85/2082) | MIC (S. aureus N315) | MIC (S. aureus strain WIS) | MIC (S. aureus NCTC 10442)
(11): selectivity index (EC50/MIC) (A. baumanii K12-21) | selectivity index (EC50/MIC) (E. coli 50739822) | selectivity index (EC50/MIC) (E. coli 50579417) | selectivity index (EC50/MIC) (E. coli 50676002; E. coli 50676002) | selectivity index (EC50/MIC) (S. aureus IHT 99040) | selectivity index (EC50/MIC) (S. aureus strain 85/2082) | selectivity index (EC50/MIC) (S. aureus N315) | selectivity index (EC50/MIC) (S. aureus strain WIS) | selectivity index (EC50/MIC) (S. aureus NCTC 10442)
(6): selectivity index (EC50/MIC) (A. baumanii K63-58) | selectivity index (EC50/MIC) (A. baumanii K44-35) | selectivity index (EC50/MIC) (A. baumanii K47-42) | selectivity index (EC50/MIC) (A. baumanii K55-13)

N=C(N)NCCCCN1C(=O)N(CCCCNC(=N)N)C(=O)C(Cc2ccc3ccccc3c2)(Cc2ccc3ccccc3c2)C1=O [8(iv), 1,1′-(4,4′-(5,5-bis(naphthalen-2-ylmethyl)-2,4,6-trioxodihydropyrimidine-1,3(2H,4H)-diyl)bis(butane-4,1-diyl))-diguanidine]
(8): selectivity index (EC50/MIC) (E. coli 50579417)
(17): selectivity index (EC50/MIC) (E. coli 50739822) | selectivity index (EC50/MIC) (E. coli 50676002; E. coli 50676002) | selectivity index (EC50/MIC) (S. aureus IHT 99040) | selectivity index (EC50/MIC) (S. aureus strain 85/2082) | selectivity index (EC50/MIC) (S. aureus N315) | selectivity index (EC50/MIC) (S. aureus strain WIS) | selectivity index (EC50/MIC) (S. aureus NCTC 10442)
(4): selectivity index (EC50/MIC) (A. baumanii K63-58) | selectivity index (EC50/MIC) (A. baumanii K12-21) | selectivity index (EC50/MIC) (A. baumanii K44-35) | selectivity index (EC50/MIC) (A. baumanii K47-42) | selectivity index (EC50/MIC) (A. baumanii K55-13)
8 µg/mL: MIC (E. coli 50739822) | MIC (E. coli 50676002; Escherichia coli, E. coli 50676002, read-out: Antimicrobial activity (MIC)) | MIC (S. aureus IHT 99040) | MIC (S. aureus strain 85/2082) | MIC (S. aureus N315) | MIC (S. aureus strain WIS) | MIC (S. aureus NCTC 10442) | IC50 [1]
32 µg/mL: MIC (A. baumanii K63-58) | MIC (A. baumanii K12-21) | MIC (A. baumanii K44-35) | MIC (A. baumanii K47-42) | MIC (A. baumanii K55-13)
16 µg/mL: MIC (E. coli 50579417)
